The subject of data set [1] is CYP1A in rat liver microsomes (RLM). The experiment in a line: Inhibition of NCMN-O-demethylation by CYP inhibitors in rat liver microsomes. As to conditions: RLM; 10 µM NCMN; 100 µM furafylline, 10 µM sulfaphenazole, 200 µM troleandomycin, 500 µM 1-ABT.
For data set [2], the target named is T1, CYP1A in mouse liver microsomes (MLM) (Mus musculus, UniProt P00186).
T1 sequence (P00186 2-513): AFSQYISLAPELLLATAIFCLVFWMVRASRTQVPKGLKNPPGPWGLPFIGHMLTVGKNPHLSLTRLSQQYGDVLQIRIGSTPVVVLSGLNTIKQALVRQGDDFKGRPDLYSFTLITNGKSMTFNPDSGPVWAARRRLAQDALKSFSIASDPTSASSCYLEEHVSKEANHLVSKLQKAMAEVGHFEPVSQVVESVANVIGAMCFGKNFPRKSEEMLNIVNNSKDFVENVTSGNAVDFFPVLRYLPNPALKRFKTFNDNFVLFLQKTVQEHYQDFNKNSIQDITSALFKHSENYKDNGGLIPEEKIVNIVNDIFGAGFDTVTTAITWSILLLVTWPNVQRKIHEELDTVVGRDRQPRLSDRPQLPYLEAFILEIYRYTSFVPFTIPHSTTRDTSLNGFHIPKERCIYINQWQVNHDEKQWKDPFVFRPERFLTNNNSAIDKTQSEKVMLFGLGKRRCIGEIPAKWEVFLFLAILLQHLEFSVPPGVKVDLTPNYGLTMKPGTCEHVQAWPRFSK
Kind of data set: Inhibition of NCMN-O-demethylation by CYP inhibitors in mouse liver microsomes. As to conditions: MLM; 10 µM NCMN; 100 µM furafylline, 10 µM sulfaphenazole, 200 µM troleandomycin, 500 µM 1-ABT. In general terms: Microsomes from liver hold many membrane-bound enzymes, among them those of drug oxidation.

Data set [3] has as its system CYP1A in minipig liver microsomes (PLM). The experiment in a line: Inhibition of NCMN-O-demethylation by CYP inhibitors in minipig liver microsomes. As to conditions: PLM; 10 µM NCMN; 100 µM furafylline, 10 µM sulfaphenazole, 200 µM troleandomycin, 500 µM 1-ABT.
The target of data set [4] is T2, CYP1A in beagle dog liver microsomes (DLM) (Canis lupus familiaris, UniProt P56592).
T2 sequence (P56592 2-512): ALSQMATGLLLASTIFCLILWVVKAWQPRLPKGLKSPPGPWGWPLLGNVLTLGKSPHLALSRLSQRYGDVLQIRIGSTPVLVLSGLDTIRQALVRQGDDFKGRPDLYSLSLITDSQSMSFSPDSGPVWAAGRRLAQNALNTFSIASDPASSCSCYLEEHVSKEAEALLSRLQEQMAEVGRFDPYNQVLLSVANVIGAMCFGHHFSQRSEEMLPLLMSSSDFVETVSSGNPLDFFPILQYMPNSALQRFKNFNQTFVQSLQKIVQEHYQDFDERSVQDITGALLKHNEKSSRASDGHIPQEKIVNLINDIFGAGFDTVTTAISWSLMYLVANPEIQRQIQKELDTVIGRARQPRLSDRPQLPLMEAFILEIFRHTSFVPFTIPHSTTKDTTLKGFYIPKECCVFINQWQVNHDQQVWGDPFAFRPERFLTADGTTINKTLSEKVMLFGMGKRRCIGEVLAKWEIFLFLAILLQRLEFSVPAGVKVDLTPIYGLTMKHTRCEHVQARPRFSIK
The experiment in a line: Inhibition of NCMN-O-demethylation by CYP inhibitors in beagle dog liver microsomes. As to conditions: DLM; 10 µM NCMN; 100 µM furafylline, 10 µM sulfaphenazole, 200 µM troleandomycin, 500 µM 1-ABT.

Data set [5] has as its system CYP1A in cynomolgus monkey liver microsomes (CyLM). The experiment in a line: Inhibition of NCMN-O-demethylation by CYP inhibitors in cynomolgus monkey liver microsomes. Particulars: CyLM; 10 µM NCMN; 100 µM furafylline, 10 µM sulfaphenazole, 200 µM troleandomycin, 500 µM 1-ABT.
Data set [6] has as its system CYP1A (NCMN O-demethylation). The experiment in a line: Inhibition of NCMN-O-demethylation by CYP inhibitors in rat liver microsomes. As to conditions: rat, rat liver microsomes, pH 7.4, probe NCMN (various concentrations; formation of NCHN).
For data set [7], the target named is T3, CYP1A (NCMN O-demethylation) (Mus musculus, UniProt P00186).
T3 sequence (P00186 2-513): T1 sequence (P00186 2-513)
Kind of data set: Inhibition of NCMN-O-demethylation by CYP inhibitors in mouse liver microsomes. Particulars: mouse, pH 7.4.

Data set [8] deals with CYP1A (NCMN O-demethylation). The experiment in a line: Inhibition of NCMN-O-demethylation by CYP inhibitors in minipig liver microsomes. As to conditions: minipig, pig, minipig liver microsomes, pH 7.4, probe NCMN (various concentrations; formation of NCHN).
Data set [9] concerns the target T4, CYP1A (NCMN O-demethylation) (Canis lupus familiaris, UniProt P56592).
T4 sequence (P56592 2-512): T2 sequence (P56592 2-512)
The experiment in a line: Inhibition of NCMN-O-demethylation by CYP inhibitors in beagle dog liver microsomes. Particulars: beagle, dog, pH 7.4.

The test system of data set [10] is CYP1A (NCMN O-demethylation). Kind of data set: Inhibition of NCMN-O-demethylation by CYP inhibitors in cynomolgus monkey liver microsomes. Particulars: cynomolgus monkey, cynomolgus monkey liver microsomes, pH 7.4, probe NCMN (various concentrations; formation of NCHN).
Data set [11] addresses T5, CYP1A in human liver microsomes (HLM) (Homo sapiens, UniProt P05177).
T5 sequence (P05177 2-516): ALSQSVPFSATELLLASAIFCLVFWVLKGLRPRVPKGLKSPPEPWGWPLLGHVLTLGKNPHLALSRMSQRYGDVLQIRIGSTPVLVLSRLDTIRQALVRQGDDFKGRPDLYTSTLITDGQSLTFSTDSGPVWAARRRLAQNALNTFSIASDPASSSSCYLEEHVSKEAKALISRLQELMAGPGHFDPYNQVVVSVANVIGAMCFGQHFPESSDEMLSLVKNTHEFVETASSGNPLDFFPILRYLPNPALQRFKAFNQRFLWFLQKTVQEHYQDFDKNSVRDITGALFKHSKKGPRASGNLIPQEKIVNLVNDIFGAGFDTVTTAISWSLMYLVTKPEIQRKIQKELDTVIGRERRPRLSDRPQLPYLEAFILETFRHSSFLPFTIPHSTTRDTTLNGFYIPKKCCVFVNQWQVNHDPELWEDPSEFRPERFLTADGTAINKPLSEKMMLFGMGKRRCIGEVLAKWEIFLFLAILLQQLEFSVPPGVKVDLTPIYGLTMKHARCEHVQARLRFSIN
The experiment in a line: Inhibition of NCMN-O-demethylation by CYP inhibitors in human liver microsomes. Particulars: 10 µM NCMN, 100 µM furafylline, 10 µM sulfaphenazole, 200 µM troleandomycin, 500 µM 1-ABT.

Substrate in data set [12]: COc1ccc2c3c(cccc13)C(=O)N(CCCC(=O)O)C2=O
The experiment in a line: Kinetic analysis of NCMN-O-demethylation in cDNA-expressed rat CYP1A2. Particulars: other: CYP1A2 (Rat), 100 nM; Michaelis-Menten; substrate 1-150 µM; pH 7.4; 37.0 °C. Format: in vitro ADME. As for the experimental part: (§1) The formation rates of NCHN were within the linear range of the protein concentration and incubation time. NCMN (1, 2.5, 5, 7.5, 10, 25, 50, 75, 100 and 150 µM) was incubated with HLM, MLM, RLM, DLM, PLM, CyLM (0.25mg protein/mL) as well as rat CYP1A2 (100 nM) for 30min. […] .

Substrate in data set [13]: COc1ccc2c3c(cccc13)C(=O)N(CCCC(=O)O)C2=O
The experiment in a line: Kinetic analysis of NCMN-O-demethylation in human CYP1A2. Format: in vitro ADME. As to conditions: other: CYP1A2 (human); substrate 1-150 µM; pH 7.4; 37.0 °C. How it is done:
as §1

We go through five molecules from article PMC6695839, “Interspecies Variation in NCMN-O-Demethylation in Liver Microsomes from Various Species” (Molecules, 2019).

As usually defined, the IC50 is the concentration that gives 50% inhibition. The term Km denotes the concentration of substrate that gives half-maximal velocity.

On to `Nn1nnc2ccccc21` [ABT, 1-Aminobenzotriazole], for which the “Inhibition of the formation of NCHN” value in [1], in data set [2], in data set [3], in data set [4] and in [5] was “potently inhibit” in each case.
Turning to `Cc1nc2c([nH]1)c(=O)n(C)c(=O)n2Cc1ccco1` [furafylline], the 50% inhibitory concentration (IC50) in [6] was determined as […]; in [7], 5.73 µM; in data set [8] it was […]; in data set [9], 26.8 µM; in data set [10] it was […]. The “Inhibition of the formation of NCHN” value is recorded as “near completely” in data set [1]; “near completely” in data set [2]; “lower inhibitory effects” in data set [3]; “lower inhibitory effects” in [4]; “lower inhibitory effects” in data set [5].
`Nc1ccc(S(=O)(=O)Nc2ccnn2-c2ccccc2)cc1` [sulfaphenazole]: the “Inhibition of the formation of NCHN” value in [1], in data set [11], in data set [2], in [3], in [4] and in data set [5] was “less than 25%” throughout.

B1: CYP1A2 (Rat) (Rattus norvegicus) (protein)
chain: MAFSQYISLAPELLLATAIFCLVFWVLRGTRTQVPKGLKSPPGPWGLPFIGHMLTLGKNPHLSLTKLSQQYGDVLQIRIGSTPVVVLSGLNTIKQALVKQGDDFKGRPDLYSFTLITNGKSMTFNPDSGPVWAARRRLAQDALKSFSIASDPTSVSSCYLEEHVSKEANHLISKFQKLMAEVGHFEPVNQVVESVANVIGAMCFGKNFPRKSEEMLNLVKSSKDFVENVTSGNAVDFFPVLRYLPNPALKRFKNFNDNFVLFLQKTVQEHYQDFNKNSIQDITGALFKHSENYKDNGGLIPQEKIVNIVNDIFGAGFETVTTAIFWSILLLVTEPKVQRKIHEELDTVIGRDRQPRLSDRPQLPYLEAFILEIYRYTSFVPFTIPHSTTRDTSLNGFHIPKECCIFINQWQVNHDEKQWKDPFVFRPERFLTNDNTAIDKTLSEKVMLFGLGKRRCIGEIPAKWEVFLFLAILLHQLEFTVPPGVKVDLTPSYGLTMKPRTCEHVQAWPRFSK
notes: purchased Research Institute for Liver Diseases (RILD, Shanghai, China) Lot.int066e1c
For the molecule B1, in [12], the Michaelis constant (Km) turned out to be 4.04 ± 0.16 µM and the kcat was determined as 7.48±0.05 nmol/min/nmol CYP.

B2: CYP1A2 (human) (Homo sapiens) (protein)
chain: MALSQSVPFSATELLLASAIFCLVFWVLKGLRPRVPKGLKSPPEPWGWPLLGHVLTLGKNPHLALSRMSQRYGDVLQIRIGSTPVLVLSRLDTIRQALVRQGDDFKGRPDLYTSTLITDGQSLTFSTDSGPVWAARRRLAQNALNTFSIASDPASSSSCYLEEHVSKEAKALISRLQELMAGPGHFDPYNQVVVSVANVIGAMCFGQHFPESSDEMLSLVKNTHEFVETASSGNPLDFFPILRYLPNPALQRFKAFNQRFLWFLQKTVQEHYQDFDKNSVRDITGALFKHSKKGPRASGNLIPQEKIVNLVNDIFGAGFDTVTTAISWSLMYLVTKPEIQRKIQKELDTVIGRERRPRLSDRPQLPYLEAFILETFRHSSFLPFTIPHSTTRDTTLNGFYIPKKCCVFVNQWQVNHDPELWEDPSEFRPERFLTADGTAINKPLSEKMMLFGMGKRRCIGEVLAKWEIFLFLAILLQQLEFSVPPGVKVDLTPIYGLTMKHARCEHVQARLRFSIN
For the molecule B2, in data set [13], the Km worked out at 9.80 ± 0.67 µM and the kcat turned out to be 32.06 ± 0.50 nmol/min/nmol CYP.
